From patent US11186579B2 (Gilead Sciences, Inc., priority 2018, dated 2021) come the findings set out here.

For the assay, the target named is T1, IDO1 (Homo sapiens, UniProt P14902).
T1 construct: HeLa cells were treated with a test compound in the presence of IFNγ, which induces IDO1 expression; endogenous in cells; host or cells: H1-HeLa cells (ATCC #CRL-1958), IDO1 induced with IFNγ
T1 sequence (P14902 whole entry): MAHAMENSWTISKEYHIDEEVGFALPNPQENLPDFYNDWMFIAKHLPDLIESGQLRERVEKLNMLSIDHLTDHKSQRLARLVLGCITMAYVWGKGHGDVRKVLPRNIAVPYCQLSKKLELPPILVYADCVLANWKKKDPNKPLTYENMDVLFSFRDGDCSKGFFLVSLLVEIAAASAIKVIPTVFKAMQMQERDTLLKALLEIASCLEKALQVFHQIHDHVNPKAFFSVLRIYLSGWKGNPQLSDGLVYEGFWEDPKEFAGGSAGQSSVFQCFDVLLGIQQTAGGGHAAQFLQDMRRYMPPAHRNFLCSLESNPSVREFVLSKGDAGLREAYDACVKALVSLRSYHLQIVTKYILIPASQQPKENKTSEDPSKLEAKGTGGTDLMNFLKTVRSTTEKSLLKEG
Put plainly: Cell-Based (HeLa) Assay for Measurement of IDO1 Inhibition. To be noted: H1-HeLa cells, IDO1 induced with IFNγ, 48 hour incubation, kynurenine in supernatant (absorbance 480 nm); geometric mean of minimum four determinations. Here is the method: To measure IDO1 inhibition in tissue culture, HeLa cells were treated with a test compound in the presence of IFNγ, which induces IDO1 expression. Following incubation, cell supernatants were assayed for kynurenine levels, an indicator of IDO1 activity.
The following day, the test compounds were added in DMSO (0.5% final) at various concentrations, and IDO1 was inducibly expressed by the addition of 50 uL/well of 50 ng/mL of INFγ (Peprotech #300-02) in cell plating media. As a positive control, 50 uL of the cell plating media without IFNγ was added to several wells. Following a 48 hour incubation, the plates were spun down at 1,200 RPM for 5 min at 10° C. 65 μL/well of the supernatant was then transferred to new 384-well plates (Thermo #262160) that contained 10 uL/well of 30% TCA (Sigma #TO699), and the plates were sealed and incubated at 60° C. for 30 min. The plates were then centrifuged for 15 min at 2,000 RPM at 10° C. 40 μL/well of the supernatant was transferred to new 384-well plates (Thermo #262160) and was reacted with 40 μL/well of 2% (w/v) p-dimethlyaminobenzaldehyde (Sigma #156417) in glacial acetic acid (Sigma #A6283). The reaction was incubated at room temperature for 10 min and absorbance at 480 nm was read using a PerkinElmer Envision plate reader.
Data in Table 1 were normalized based on positive (-IFNγ) and negative (+IFNγ) controls and EC50 values were calculated from the fit of the dose-response curves to a four-parameter equation. All EC50 values represent geometric mean values of a minimum of four determinations.
As to `Cc1ccc(-c2cccn3c(-c4cccc(F)c4)cnc23)cc1C(=O)Nc1ccc(F)cc1` [Example 19, N-(4-fluorophenyl)-5-(3-(3-fluorophenyl)imidazo[1,2-a]pyridin-8-yl)-2-methylbenzamide], the EC50 (as a rule, the concentration that produces a half-maximal response) turned out to be 146 nM. In other words, the sub-micromolar range. As for `Cc1cccc(-c2cnc3c(-c4ccc(C(F)(F)F)c(C(=O)Nc5ccc(F)cc5)c4)cccn23)n1` [Example 5], the EC50 came to 1700 nM. For `Cc1ccc(-c2cnc3c(-c4ccc(C(F)(F)F)c(C(=O)Nc5ccc(F)cc5)c4)cccn23)cn1` [Example 4, N-(4-fluorophenyl)-5-(3-(6-methylpyridin-3-yl)imidazo[1,2-a]pyridin-8-yl)-2-(trifluoromethyl)benzamide] the value was 2230 nM; for `O=C(Nc1ccc(F)cc1)c1cc(-c2cccn3c(-c4cccc(F)c4F)c(CO)nc23)ccc1C(F)(F)F` [Example 28, 5-(3-(2,3-difluorophenyl)-2-(hydroxymethyl)imidazo[1,2-a]pyridin-8-yl)-N-(4-fluorophenyl)-2-(trifluoromethyl)benzamide], 40 nM. Consider `O=C(Nc1ccc(F)cc1)c1nc(-c2cccn3c(-c4cccc(F)c4F)cnc23)ccc1C(F)(F)F` [Example 24, 6-(3-(2,3-difluorophenyl)imidazo[1,2-a]pyridin-8-yl)-N-(4-fluorophenyl)-3-(trifluoromethyl)picolinamide], for which it took 64 nM to reach a half-maximal effect (EC50). For `O=C(Nc1ccc(F)cc1)c1cc(-c2cccn3c(-c4cccc(F)c4F)cnc23)cnc1C(F)(F)F` [Example 20, 5-(3-(2,3-difluorophenyl)imidazo[1,2-a]pyridin-8-yl)-N-(4-fluorophenyl)-2-(trifluoromethyl)nicotinamide] the value was 89 nM.

The compound `Cc1cnc(-c2cccn3c(-c4cccc(F)c4F)cnc23)cc1C(=O)Nc1ccc(F)cc1` [Example 8, 2-(3-(2,3-difluorophenyl)imidazo[1,2-a]pyridin-8-yl)-N-(4-fluorophenyl)-5-methylisonicotinamide] came in with a half-maximal effective concentration (EC50) of 945 nM. As for `Cc1ccc(-c2cccn3c(-c4cccc(F)c4F)cnc23)nc1C(=O)Nc1ccc(F)cc1` [Example 16, 6-(3-(2,3-difluorophenyl)imidazo[1,2-a]pyridin-8-yl)-N-(4-fluorophenyl)-3-methylpicolinamide], a half-maximal response (EC50) required 168 nM. For `O=C(Nc1ccc(F)cc1)c1cc(-c2cccn3c(-c4cccnc4)c(CO)nc23)ccc1C(F)(F)F` [Example 21, N-(4-fluorophenyl)-5-(2-(hydroxymethyl)-3-(pyridin-3-yl)imidazo[1,2-a]pyridin-8-yl)-2-(trifluoromethyl)benzamide], the concentration giving a half-maximal response (EC50) is 89 nM. For `Cc1nc2c(-c3ccc(C(F)(F)F)c(C(=O)Nc4ccc(F)cc4)c3)cccn2c1-c1cccnc1` [Example 18, N-(4-fluorophenyl)-5-(2-methyl-3-(pyridin-3-yl)imidazo[1,2-a]pyridin-8-yl)-2-(trifluoromethyl)benzamide] the value was 165 nM; for `NCc1nc2c(-c3ccc(C(F)(F)F)c(C(=O)Nc4ccc(F)cc4)c3)cccn2c1-c1cccc(F)c1F` [Example 7, 5-(2-(aminomethyl)-3-(2,3-difluorophenyl)imidazo[1,2-a]pyridin-8-yl)-N-(4-fluorophenyl)-2-(trifluoromethyl)benzamide], 1010 nM; for `O=C(Nc1ccc(F)cc1)c1cc(-c2cccn3c(-c4cccnc4F)cnc23)ccc1C(F)(F)F` [Example 22, N-(4-fluorophenyl)-5-(3-(2-fluoropyridin-3-yl)imidazo[1,2-a]pyridin-8-yl)-2-(trifluoromethyl)benzamide], 74 nM. For `Fc1ccc2[nH]c(-c3cc(-c4cccn5c(-c6cccc(F)c6F)cnc45)ccc3C(F)(F)F)nc2c1` [Example 36, 2-(5-(3-(2,3-difluorophenyl)imidazo[1,2-a]pyridin-8-yl)-2-(trifluoromethyl)phenyl)-5-fluoro-1H-benzo[d]imidazole] the value was 713 nM; for `Cc1ccc(-c2cccn3c(-c4cccc(F)c4F)c(C)nc23)cc1C(=O)Nc1ccc(F)cc1` [Example 11, 5-(3-(2,3-difluorophenyl)-2-methylimidazo[1,2-a]pyridin-8-yl)-N-(4-fluorophenyl)-2-methylbenzamide], 436 nM; for `Cc1ncc(-c2cccn3c(-c4cncc(F)c4)c(CO)nc23)cc1C(=O)Nc1ccc(F)cc1` [Example 2, N-(4-fluorophenyl)-5-(3-(5-fluoropyridin-3-yl)-2-(hydroxymethyl)imidazo[1,2-a]pyridin-8-yl)-2-methylnicotinamide], 3610 nM. In turn, `O=C(Nc1ccc(F)cc1)c1cc(-c2cccn3c(-c4cccnc4)c(CO)nc23)ccc1Cl` [Example 15, 2-chloro-N-(4-fluorophenyl)-5-(2-(hydroxymethyl)-3-(pyridin-3-yl)imidazo[1,2-a]pyridin-8-yl)benzamide] had an EC50 of 272 nM. For `COCCOCc1nc2c(-c3ccc(C(F)(F)F)c(C(=O)Nc4ccc(F)cc4)c3)cccn2c1-c1cccc(F)c1F` [Example 1, 5-(3-(2,3-difluorophenyl)-2-((2-methoxyethoxy)methyl)imidazo[1,2-a]pyridin-8-yl)-N-(4-fluorophenyl)-2-(trifluoromethyl)benz amide] the value was 8680 nM; for `Cc1ncc(-c2cccn3c(-c4cccc(F)c4F)cnc23)cc1C(=O)Nc1ccc(F)cc1` [Example 12, 5-(3-(2,3-difluorophenyl)imidazo[1,2-a]pyridin-8-yl)-N-(4-fluorophenyl)-2-methylnicotinamide], 403 nM. With `Cc1ncc(-c2cccn3c(-c4cccc(F)c4F)c(CO)nc23)cc1C(=O)Nc1ccc(F)cc1` [Example 14, 5-(3-(2,3-difluorophenyl)-2-(hydroxymethyl)imidazo[1,2-a]pyridin-8-yl)-N-(4-fluorophenyl)-2-methylnicotinamide] the figure was 372 nM; with `Cc1ccc(-c2cccn3c(-c4ccccc4)cnc23)cc1C(=O)Nc1ccc(F)cc1` [Example 17, N-(4-fluorophenyl)-2-methyl-5-(3-phenylimidazo[1,2-a]pyridin-8-yl)benzamide], 168 nM. In the case of `Cc1ncc(-c2ccnn3c(-c4cccc(F)c4F)cnc23)cc1C(=O)Nc1ccc(F)cc1` [Example 13], a half-maximal response (EC50) required 395 nM. Against the preceding compound, the EC50 is about 2.4-fold higher. For `O=C(Nc1ccc(F)cc1)c1cc(-c2cccn3c(-c4ccncc4)cnc23)ccc1C(F)(F)F` [Example 6, N-(4-fluorophenyl)-5-(3-(pyridin-4-yl)imidazo[1,2-a]pyridin-8-yl)-2-(trifluoromethyl)benzamide] the value was 1420 nM. The compound `O=C(Nc1ccc(F)cc1)c1cc(-c2cccn3c(-c4cccc(F)c4F)cnc23)ncc1C(F)(F)F` [Example 3, 2-(3-(2,3-difluorophenyl)imidazo[1,2-a]pyridin-8-yl)-N-(4-fluorophenyl)-5-(trifluoromethyl)isonicotinamide] showed an EC50 of 2390 nM.

Compound `Cc1ncccc1-c1cnc2c(-c3ccc(C(F)(F)F)c(C(=O)Nc4ccc(F)cc4)c3)cccn12` [Example 9, N-(4-fluorophenyl)-5-(3-(2-methylpyridin-3-yl)imidazo[1,2-a]pyridin-8-yl)-2-(trifluoromethyl)benzamide] returned an EC50 of 535 nM.

As for `Cc1ccc(-c2cccn3c(-c4ccccc4F)cnc23)cc1C(=O)Nc1ccc(F)cc1` [Example 23, N-(4-fluorophenyl)-5-(3-(2-fluorophenyl)imidazo[1,2-a]pyridin-8-yl)-2-methylbenzamide], the 50% effective concentration (EC50) worked out at 73 nM.
